{
  "source": "patent US20120009131A1",
  "about": "“METHOD FOR PREVENTING OR TREATING AMYLOID BETA PEPTIDE-ASSOCIATED DISEASES OR CONDITIONS, AND METHOD FOR INHIBITING FORMATION, ACCUMULATION OR AGGREGATION OF AMYLOID BETA PEPTIDES” (Sinphar Tian-Li Pharmaceutical Co., Ltd. (Hangzhou), priority 2010, published 2012)",
  "key": {"[1]": {"target": "Human Aβ1-42 (Homo sapiens, UniProt P05067)", "sequence (P05067 672-713 limits assumed)": "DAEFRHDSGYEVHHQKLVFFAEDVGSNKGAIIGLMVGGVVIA", "test": "Aβ1-42 oligomerization (thioflavin T fluorescence)", "type": "biochemical", "details": "50 μg/ml, 24 hours", "method": "Dried Human Aβ1-42 was taken out from the refrigerator and equilibrated to room temperature. Aβ1-42 was dissolved in 1,1,1,3,3,3-Hexa-fluro-2-propanol (HFIP) to a concentration of 1 mM, and was then placed at room temperature for one hour. The Aβ1-42/HFIP solution was aliquoted by Hamilton syringe, and was then dried under a stream of nitrogen gas, followed by storing at a temperature of −20[…]. Aβ1-42 treated with HFIP was dissolved in PBS, and was vibration-incubated with treatment of each test sample at a concentration of 50 μg/ml and at 4[…] for 24 hours to prepare Aβ1-42 oligomers. The level of Aβ1-42 oligomerization was analyzed by thioflavin T fluorescence (Ex=450 nm, Em=482 nm)."}, "[2]": {"system": "extracellular Aβ1-40 accumulation in SH-SY5Y cells", "test": "Effect on extracellular Aβ1-40 accumulation (Human Aβ1-40 immunoassay of the medium)", "type": "cell-based", "details": "50 μg/ml, 24 hours, mean±SD", "method": "(§1) Wild-type human neuroblastoma cells (SH-SY5Y) were cultured in Eagle's Minimum essential Medium (EMEM)/Ham's F12 medium (1:1 mixture) (containing 10% FBS, 10 units/ml penicillin, 10 μg/ml Streptomycin). Wild-type mouse neuroblastoma Neuro-2a cells were cultured in minimum essential medium (MEM) (containing 10% FBS, 10 units/ml penicillin, 10 μg/ml Streptomycin).\nThe medium of the wild-type human neuroblastoma SH-SY5Y cells in Example 1 were switched into chemical defined medium (EMEM/F12 medium (Cat. No. 12500-062), Hepes 5 mM, Glucose 0.6%, NaHCO3 3 mM, Glutamine 2.5 mM, Insulin 25 μg/ml, Transferin 100 μg/ml, Progestrone 20 nM, Putrescine 60 μM, Sodium selenite 30 nM, Heparin 2 μg/ml). Each well contained 1×10^5 SH-SY5Y cells in 300 μl of culture medium. Thirty minutes later, each well was treated with the test samples A-D given in Table 1 respectively at a concentration of 50 μg/ml for 24 hours. After that, the level of Aβ1-40 in the medium of each well was analyzed by Human Aβ1-40 immunoassay kits (Catalog #KHB3482 Invitrogen).\nHuman neuroblastoma SH-SY5Y cells cause extracellular accumulation of Aβ. […] The results were shown in mean±standard deviation (SD) form. Significant difference between the Vehicle control group and the test sample-treated groups were indicated by *., P<0.05, *.*, P<0.01, and. ***., P<0.001."}, "[3]": {"system": "SD rats infused intracerebroventricularly with Aβ1-42", "test": "Dopamine (DA) and metabolites DOPAC and HVA levels in brain cortex and hippocampus of rats", "type": "in vivo, rat", "details": "for DA level / DOPAC level / HVA level: mean±SD", "method": "(§2) The rats were anesthetized for implantation of an infusion cannula into the left cerebral ventricle thereof. After sewing up the incisions, the rats were returned to their cages. FIG. 7 illustrates the experimental schedule for animal studies. The exploration behavior tests were carried out on day 7, the passive avoidance learning tests were carried out on day 8 and 9, the water maze tests were carried on day 10 to 13, and the probe tests were carried out on day 14, after the start of Aβ1-42 infusion. […] The test samples were administered orally to the rats, 1 hour before the tests (i.e., the exploration behavior tests, the passive avoidance learning tests, and the water maze tests) throughout the experimental period. […] All the test samples were prepared freshly with deionized distilled water (ddH2O) every day, and were administered orally by stomach tube.\n(§3) Significant difference between the Aβ1-42 control group and the other experimental groups were indicated by *., P<0.05, *.*, P<0.01, and. ***., P<0.001.\nAfter the water maze performance tests, all rats were decapitated and their brains were rapidly removed from the skull. According to Glowinski and Iversen, the brain cortex and hippocampus were separated, and then each cortex and hippocampus were weighed and were homogenized by addition of 50 mM Na-phosphate buffer (pH 7.8) for analyzing the concentrations of neurotransmitters and the levels of enzymes."}, "[4]": {"system": "Aβ-degrading enzymes released by Neuro-2a cells", "test": "Effect on extracellular Aβ1-40 degradation in Neuro-2a conditioned medium", "type": "biochemical, mouse", "details": "Neuro-2a medium, 50 μg/ml, 10 ng synthetic Aβ1-40, 24 hours", "method": "as §1\nMouse neuroblastoma Neuro-2a cells will release Aβ-degrading enzymes in the chemical defined medium, but will not produce detectable amount of Aβ in the medium. The Neuro 2a cells were incubated in the medium for 24 hours, and then the medium were drawn out without cells. The medium were individually treated with the test samples A-D at a concentration of 50 μg/ml and 10 ng synthetic Aβ1-40 for 24 hours, and then the effects of each test sample on promoting the enzymes in the medium were examined. The remaining Aβ1-40 amount of each well was analyzed by Human Aβ1-40 Immunoassay kits (Catalog #KHB3482 Invitrogen), expressing as percentage, as compared with the Vehicle control group."}, "[5]": {"system": "SD rats infused intracerebroventricularly with Aβ1-42", "test": "Water maze spatial performance and probe tests in Aβ1-42-infused rats", "type": "in vivo, rat", "details": "oral", "method": "as §2, §3"}, "[6]": {"system": "Aβ1-42 plaques in rat brain", "test": "Immunohistochemical staining for Aβ1-42 in the hippocampus section of rat's brain", "type": "in vivo", "details": "oral", "text": "In the following Examples 7 to 11 illustrated below, male Sprague-Dawley (SD) rats, weighed 250-300 gm, were obtained from BioLASCO Taiwan Co. Ltd. The SD rats were infused intracerebroventricularly with Aβ1-42 to cause neuronal damage, affecting their memory and learning ability, and leading to form senile plaque-like aggregates in the rat's brain, being used as an animal model of Alzheimer's disease. Alzheimer's disease animal model induced by Aβ can be referred to, for example, Nabeshima et al. (Neuroscience Letters (1994) 170: 63-66)(British Journal of Pharmacology (1999) 126: 235-244).\nThe rats were anesthetized for implantation of an infusion cannula into the left cerebral ventricle thereof. After sewing up the incisions, the rats were returned to their cages. FIG. 7 illustrates the experimental schedule for animal studies. The exploration behavior tests were carried out on day 7, the passive avoidance learning tests were carried out on day 8 and 9, the water maze tests were carried on day 10 to 13, and the probe tests were carried out on day 14, after the start of Aβ1-42 infusion. The Sham group was treated with TFA solution (64.9% sterile ddH2O, 35% acetonitrile, 0.1% trifluoroacetic acid), and the other experimental groups were treated with 0.5 μl of Aβ1-42 dissolved in TFA solution per hour, corresponding to 300 pmol/12 μl of Aβ1-42 (Tocris 1428; MW: 4514.08) per day. The test samples were administered orally to the rats, 1 hour before the tests (i.e., the exploration behavior tests, the passive avoidance learning tests, and the water maze tests) throughout the experimental period. […] All the test samples were prepared freshly with deionized distilled water (ddH2O) every day, and were administered orally by stomach tube.\nAll rats were sacrificed and their brains were removed, cut into slices and stained. Neurotransmitters were also tested.\nAfter the water maze performance tests, all rats were decapitated and their brains were rapidly removed from the skull, and then immunohistochemical staining for Aβ1-42 in the hippocampus section of their brains. […]"}, "[7]": {"system": "acetylcholinesterase", "test": "Acetylcholinesterase activities in brain cortex and hippocampus of rats", "type": "in vivo, rat", "details": "oral; D 2.5 and 5 mg/kg, Aricept 0.75 mg/kg", "method": "as §2, §3\n(§4) After the water maze performance tests, all rats were decapitated and their brains were rapidly removed from the skull. […]"}, "[8]": {"system": "SD rats infused intracerebroventricularly with Aβ1-42", "test": "Passive avoidance response test in Aβ1-42-infused rats", "type": "in vivo, rat", "details": "oral", "method": "as §2, §3"}, "[9]": {"system": "SD rats infused intracerebroventricularly with Aβ1-42", "test": "Exploration behavior test in Aβ1-42-infused rats", "type": "in vivo, rat", "details": "oral", "method": "as §2, §3"}, "[10]": {"system": "SD rats infused intracerebroventricularly with Aβ1-42", "test": "Acetylcholine and choline levels in brain cortex and hippocampus of rats", "type": "in vivo, rat", "details": "oral", "method": "as §2, §3, §4"}, "[11]": {"details": "brain hippocampus, oral 2.5 mg/kg"}, "[12]": {"details": "brain hippocampus, oral 5 mg/kg"}, "[13]": {"details": "D 2.5 and 5 mg/kg, Aricept 0.75 mg/kg"}},
  "note": "Marks after values point to notes of the source that are not given here.",
  "data": [
    {"molecule": "C[C@@H]1O[C@@H](O[C@@H]2[C@@H](O)[C@H](OCCc3ccc(O)c(O)c3)O[C@H](CO)[C@H]2OC(=O)/C=C/c2ccc(O)c(O)c2)[C@H](O)[C@H](O)[C@H]1O", "note": "[Test sample C, Acteoside, reference compound]", "values": [
      {"measurement": "activity on inhibiting Aβ1-42 oligomerization (in words)", "setting": "[1]", "result": "possess activities on inhibiting Aβ1-42 oligomerization"},
      {"measurement": "reduction of the level of Aβ1-40 in the medium in comparison with the Vehicle control group", "setting": "[2]", "result": "about 20%"}
    ]},
    {"molecule": "C[C@@H]1O[C@@H](O[C@@H]2[C@@H](O)[C@H](OCCc3ccc(O)c(O)c3)O[C@H](CO[C@@H]3O[C@H](CO)[C@@H](O)[C@H](O)[C@H]3O)[C@H]2OC(=O)/C=C/c2ccc(O)c(O)c2)[C@H](O)[C@H](O)[C@H]1O", "note": "[Test sample B, Echinacoside, reference compound]", "values": [
      {"measurement": "activity on inhibiting Aβ1-42 oligomerization (in words)", "setting": "[1]", "result": "possess activities on inhibiting Aβ1-42 oligomerization"}
    ]},
    {"molecule": "Isoacteoside [Test sample D]", "values": [
      {"measurement": "activity on inhibiting Aβ1-42 oligomerization (in words)", "setting": "[1]", "result": "possess activities on inhibiting Aβ1-42 oligomerization"},
      {"measurement": "inhibition of Aβ1-42 oligomerization", "setting": "[1]", "result": "98.93±1.70", "unit": "%"},
      {"measurement": "DA level", "setting": "[3]; brain cortex, oral 2.5 mg/kg", "result": "2.67 ± 0.43"},
      {"measurement": "DOPAC level", "setting": "[3]; brain cortex, oral 2.5 mg/kg", "result": "12.53 ± 3.33"},
      {"measurement": "HVA level", "setting": "[3]; brain cortex, oral 2.5 mg/kg", "result": "2.92 ± 0.58"},
      {"measurement": "DA level", "setting": "[3]; brain cortex, oral 5 mg/kg", "result": "3.84 ± 0.47*"},
      {"measurement": "DOPAC level", "setting": "[3]; brain cortex, oral 5 mg/kg", "result": "13.80 ± 3.03"},
      {"measurement": "HVA level", "setting": "[3]; brain cortex, oral 5 mg/kg", "result": "2.74 ± 0.69"},
      {"measurement": "DA level", "setting": "[3]; [11]", "result": "5.41 ± 1.30***"},
      {"measurement": "DOPAC level", "setting": "[3]; [11]", "result": "4.98 ± 1.15"},
      {"measurement": "HVA level", "setting": "[3]; [11]", "result": "3.68 ± 0.46"},
      {"measurement": "DA level", "setting": "[3]; [12]", "result": "4.07 ± 0.59***"},
      {"measurement": "DOPAC level", "setting": "[3]; [12]", "result": "4.13 ± 0.45"},
      {"measurement": "HVA level", "setting": "[3]; [12]", "result": "3.29 ± 0.25"},
      {"measurement": "DA levels in the cortex and hippocampus (in words)", "setting": "[3]; oral, D 2.5 and 5 mg/kg, Aricept 0.75 mg/kg", "result": "reverse the decrease in DA levels"},
      {"measurement": "Aβ1-40 degradation (remaining Aβ1-40 amount)", "setting": "[4]", "result": "does not accelerate Aβ degradation"},
      {"measurement": "water maze spatial performance and probe test, compared with Aricept 0.75 mg/kg", "setting": "[5]; 5 mg/kg", "result": "shows better effects than Aricept 0.75 mg/kg"},
      {"measurement": "deficits of the water maze spatial performance and the probe test", "setting": "[5]; [13]", "result": "can be improved"},
      {"measurement": "plaques found in the brain of the rat", "setting": "[6]; 2.5 mg/kg", "result": "few plaques"},
      {"measurement": "plaques found in the brain of the rat", "setting": "[6]; 5 mg/kg", "result": "almost no plaques"},
      {"measurement": "plaques in the brain, compared with Aricept-treated rat", "setting": "[6]; D 2.5 and 5 mg/kg vs Aricept 0.75 mg/kg", "result": "less than that in the brain of the rat treated with Aricept"},
      {"measurement": "acetylcholinesterase activities in the brain cortex and hippocampus", "setting": "[7]", "result": "reverse the increase in acetylcholinesterase activities"},
      {"measurement": "passive avoidance response, compared with Aricept 0.75 mg/kg", "setting": "[8]; 2.5 mg/kg", "result": "shows equivalent effect with Aricept 0.75 mg/kg"},
      {"measurement": "passive avoidance response, compared with Aricept 0.75 mg/kg", "setting": "[8]; 5 mg/kg", "result": "shows better effects than Aricept 0.75 mg/kg"},
      {"measurement": "passive avoidance learning impairment (step-through latency)", "setting": "[8]; [13]", "result": "reverse the passive avoidance learning impairment"},
      {"measurement": "exploratory activities, compared with Aricept 0.75 mg/kg", "setting": "[9]; 5 mg/kg", "result": "shows better effects than Aricept 0.75 mg/kg"},
      {"measurement": "exploratory activities of the rats", "setting": "[9]; D 2.5 and 5 mg/kg, Aricept 0.75 mg/kg, day 7", "result": "effective in improving the exploratory activities of the rats"},
      {"measurement": "reduction of the level of Aβ1-40 in the medium in comparison with the Vehicle control group", "setting": "[2]", "result": "about 47.44±16.62%"},
      {"measurement": "acetylcholine levels in the brain cortex and hippocampus", "setting": "[10]; 5 mg/kg", "result": "particularly potent"},
      {"measurement": "acetylcholine levels in the brain cortex and hippocampus", "setting": "[10]; [13]", "result": "reverse the decrease in acetylcholine levels"}
    ]}
  ]
}
